Source: ChEMBL document CHEMBL5465560, “Selectivity Literature for EUbOPEN Chemogenomic Library” (2024)

Legend:
[1] = molecular target: T1, Serine/threonine-protein kinase D2 (Homo sapiens) (UniProt Q9BZL6); assay: Selectivity interaction (KinomeScan (DiscoverX)) EUB0000229b PRKD2; settings: at 10 µM
T1 sequence (whole entry): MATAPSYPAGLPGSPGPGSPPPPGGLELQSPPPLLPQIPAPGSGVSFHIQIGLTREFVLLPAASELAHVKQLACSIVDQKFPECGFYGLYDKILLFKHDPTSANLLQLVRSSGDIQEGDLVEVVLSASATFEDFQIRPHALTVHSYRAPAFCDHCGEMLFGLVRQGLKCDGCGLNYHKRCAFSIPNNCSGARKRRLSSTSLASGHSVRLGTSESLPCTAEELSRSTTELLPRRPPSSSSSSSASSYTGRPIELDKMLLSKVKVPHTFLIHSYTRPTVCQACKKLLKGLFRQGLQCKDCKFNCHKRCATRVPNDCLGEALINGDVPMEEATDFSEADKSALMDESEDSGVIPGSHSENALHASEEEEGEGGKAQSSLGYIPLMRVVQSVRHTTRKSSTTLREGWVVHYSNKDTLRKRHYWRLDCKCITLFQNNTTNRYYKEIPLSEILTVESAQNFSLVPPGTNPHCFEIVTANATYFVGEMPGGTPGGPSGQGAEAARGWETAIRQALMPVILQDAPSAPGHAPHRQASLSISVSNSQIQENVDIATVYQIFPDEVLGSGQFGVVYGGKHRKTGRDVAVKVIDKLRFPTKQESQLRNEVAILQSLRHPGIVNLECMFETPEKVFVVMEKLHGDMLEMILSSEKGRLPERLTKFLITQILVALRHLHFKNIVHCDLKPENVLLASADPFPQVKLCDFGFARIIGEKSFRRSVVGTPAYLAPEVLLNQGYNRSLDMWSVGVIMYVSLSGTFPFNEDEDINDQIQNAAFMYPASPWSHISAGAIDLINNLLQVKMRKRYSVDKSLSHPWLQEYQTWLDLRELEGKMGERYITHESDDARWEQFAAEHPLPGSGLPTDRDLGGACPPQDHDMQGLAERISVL

[2] = molecular target: Casein kinase I isoform gamma-3 (Homo sapiens) (UniProt Q9Y6M4); assay: Selectivity interaction (KinomeScan (DiscoverX)) EUB0000666a CSNK1G3; settings: at 10 µM
[3] = molecular target: Serine/threonine-protein kinase WNK3 (Homo sapiens) (UniProt Q9BYP7); assay: Selectivity interaction (KinomeScan (DiscoverX)) EUB0000666a WNK3; settings: at 10 µM
[4] = molecular target: T2, Serine/threonine-protein kinase Nek1 (Homo sapiens) (UniProt Q96PY6); assay: Selectivity interaction (SelectScreen profiling (Invitrogen)) EUB0000607a NEK1; settings: at 2 µM
T2 sequence (whole entry): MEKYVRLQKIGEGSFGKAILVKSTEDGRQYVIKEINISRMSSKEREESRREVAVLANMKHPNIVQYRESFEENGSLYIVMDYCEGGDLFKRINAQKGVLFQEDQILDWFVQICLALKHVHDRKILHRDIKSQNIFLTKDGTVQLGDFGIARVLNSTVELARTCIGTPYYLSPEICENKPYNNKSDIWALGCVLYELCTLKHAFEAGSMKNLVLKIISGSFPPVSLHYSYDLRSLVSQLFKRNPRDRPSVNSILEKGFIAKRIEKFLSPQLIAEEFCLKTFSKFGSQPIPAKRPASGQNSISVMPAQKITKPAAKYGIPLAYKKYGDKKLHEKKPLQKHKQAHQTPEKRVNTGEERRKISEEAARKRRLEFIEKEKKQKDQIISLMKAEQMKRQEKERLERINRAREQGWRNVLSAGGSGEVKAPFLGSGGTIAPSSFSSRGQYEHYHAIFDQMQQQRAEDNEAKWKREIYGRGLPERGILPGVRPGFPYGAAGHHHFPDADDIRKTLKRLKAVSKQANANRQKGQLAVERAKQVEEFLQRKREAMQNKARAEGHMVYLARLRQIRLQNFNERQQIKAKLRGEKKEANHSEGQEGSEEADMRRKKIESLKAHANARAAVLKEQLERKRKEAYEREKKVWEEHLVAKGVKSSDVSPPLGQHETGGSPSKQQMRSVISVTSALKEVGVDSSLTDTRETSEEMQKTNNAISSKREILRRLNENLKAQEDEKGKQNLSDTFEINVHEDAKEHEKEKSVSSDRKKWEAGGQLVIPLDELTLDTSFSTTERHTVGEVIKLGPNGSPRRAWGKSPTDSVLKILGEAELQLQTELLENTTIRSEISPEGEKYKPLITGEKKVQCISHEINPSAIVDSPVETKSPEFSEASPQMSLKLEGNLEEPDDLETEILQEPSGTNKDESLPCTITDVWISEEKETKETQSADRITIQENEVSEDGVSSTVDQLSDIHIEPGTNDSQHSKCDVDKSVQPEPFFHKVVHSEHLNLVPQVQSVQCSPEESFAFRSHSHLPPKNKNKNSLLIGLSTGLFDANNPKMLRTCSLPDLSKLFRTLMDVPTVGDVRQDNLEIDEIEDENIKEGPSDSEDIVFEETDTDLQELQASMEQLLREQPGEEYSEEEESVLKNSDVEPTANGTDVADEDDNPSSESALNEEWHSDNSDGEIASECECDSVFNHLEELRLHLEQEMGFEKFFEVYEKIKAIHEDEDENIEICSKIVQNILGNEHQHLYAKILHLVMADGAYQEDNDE

[5] = molecular target: T3, Tyrosine-protein kinase Tec (Homo sapiens) (UniProt P42680); assay: Selectivity interaction (KinomeScan (DiscoverX)) EUB0000618a TEC; settings: at 10 µM
T3 sequence (whole entry): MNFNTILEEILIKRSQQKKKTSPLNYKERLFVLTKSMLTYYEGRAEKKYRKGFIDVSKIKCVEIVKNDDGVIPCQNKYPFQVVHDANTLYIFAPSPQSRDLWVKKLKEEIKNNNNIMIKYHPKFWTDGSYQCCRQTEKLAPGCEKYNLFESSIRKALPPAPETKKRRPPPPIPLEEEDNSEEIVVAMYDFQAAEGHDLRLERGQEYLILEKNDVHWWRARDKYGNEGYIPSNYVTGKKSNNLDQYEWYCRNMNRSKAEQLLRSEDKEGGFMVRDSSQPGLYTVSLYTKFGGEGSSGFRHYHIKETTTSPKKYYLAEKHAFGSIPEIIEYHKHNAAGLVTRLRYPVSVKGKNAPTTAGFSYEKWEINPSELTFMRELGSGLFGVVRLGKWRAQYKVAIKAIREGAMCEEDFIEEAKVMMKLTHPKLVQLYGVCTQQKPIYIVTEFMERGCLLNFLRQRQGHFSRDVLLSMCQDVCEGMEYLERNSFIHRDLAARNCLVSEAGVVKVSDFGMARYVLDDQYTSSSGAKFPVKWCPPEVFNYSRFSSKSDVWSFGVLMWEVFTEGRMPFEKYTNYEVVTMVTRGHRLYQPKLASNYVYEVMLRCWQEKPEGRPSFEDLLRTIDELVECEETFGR

[6] = molecular target: BMP-2-inducible protein kinase (Homo sapiens) (UniProt Q9NSY1); assay: Selectivity interaction (KinomeScan (DiscoverX)) EUB0000618a BMP2K; settings: at 10 µM
Sequence of BMP-2-inducible protein kinase (Homo sapiens) (Q9NSY1 whole entry, looked up): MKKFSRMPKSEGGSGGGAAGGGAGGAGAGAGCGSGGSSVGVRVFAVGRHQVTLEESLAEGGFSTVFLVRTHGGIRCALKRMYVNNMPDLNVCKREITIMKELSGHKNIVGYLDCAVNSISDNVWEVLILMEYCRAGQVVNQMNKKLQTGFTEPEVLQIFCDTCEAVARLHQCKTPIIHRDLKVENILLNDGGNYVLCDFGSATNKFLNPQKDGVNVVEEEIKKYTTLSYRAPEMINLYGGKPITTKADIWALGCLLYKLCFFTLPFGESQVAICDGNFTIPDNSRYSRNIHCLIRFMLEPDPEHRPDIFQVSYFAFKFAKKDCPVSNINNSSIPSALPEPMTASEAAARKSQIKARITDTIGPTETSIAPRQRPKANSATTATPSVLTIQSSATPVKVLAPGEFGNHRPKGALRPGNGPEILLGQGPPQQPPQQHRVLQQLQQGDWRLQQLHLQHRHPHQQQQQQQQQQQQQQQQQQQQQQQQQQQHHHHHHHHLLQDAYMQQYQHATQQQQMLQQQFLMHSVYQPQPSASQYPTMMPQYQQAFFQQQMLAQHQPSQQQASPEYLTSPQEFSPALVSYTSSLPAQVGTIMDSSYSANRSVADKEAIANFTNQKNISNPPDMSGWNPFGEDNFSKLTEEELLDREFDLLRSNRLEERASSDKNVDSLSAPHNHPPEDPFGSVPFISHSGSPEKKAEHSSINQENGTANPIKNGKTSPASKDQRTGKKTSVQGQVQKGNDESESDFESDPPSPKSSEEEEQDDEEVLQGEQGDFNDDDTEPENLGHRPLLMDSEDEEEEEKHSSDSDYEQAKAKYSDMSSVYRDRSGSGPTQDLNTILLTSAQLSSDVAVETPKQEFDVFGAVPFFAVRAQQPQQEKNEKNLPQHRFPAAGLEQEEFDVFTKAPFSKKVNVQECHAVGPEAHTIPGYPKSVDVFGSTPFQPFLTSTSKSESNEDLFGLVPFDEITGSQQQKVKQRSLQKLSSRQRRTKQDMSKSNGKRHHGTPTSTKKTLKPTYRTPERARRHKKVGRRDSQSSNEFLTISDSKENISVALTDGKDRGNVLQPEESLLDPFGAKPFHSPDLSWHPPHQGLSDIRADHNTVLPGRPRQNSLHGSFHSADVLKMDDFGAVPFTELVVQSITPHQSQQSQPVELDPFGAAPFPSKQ

Sequence of Serine/threonine-protein kinase WNK3 (Homo sapiens) (Q9BYP7 whole entry): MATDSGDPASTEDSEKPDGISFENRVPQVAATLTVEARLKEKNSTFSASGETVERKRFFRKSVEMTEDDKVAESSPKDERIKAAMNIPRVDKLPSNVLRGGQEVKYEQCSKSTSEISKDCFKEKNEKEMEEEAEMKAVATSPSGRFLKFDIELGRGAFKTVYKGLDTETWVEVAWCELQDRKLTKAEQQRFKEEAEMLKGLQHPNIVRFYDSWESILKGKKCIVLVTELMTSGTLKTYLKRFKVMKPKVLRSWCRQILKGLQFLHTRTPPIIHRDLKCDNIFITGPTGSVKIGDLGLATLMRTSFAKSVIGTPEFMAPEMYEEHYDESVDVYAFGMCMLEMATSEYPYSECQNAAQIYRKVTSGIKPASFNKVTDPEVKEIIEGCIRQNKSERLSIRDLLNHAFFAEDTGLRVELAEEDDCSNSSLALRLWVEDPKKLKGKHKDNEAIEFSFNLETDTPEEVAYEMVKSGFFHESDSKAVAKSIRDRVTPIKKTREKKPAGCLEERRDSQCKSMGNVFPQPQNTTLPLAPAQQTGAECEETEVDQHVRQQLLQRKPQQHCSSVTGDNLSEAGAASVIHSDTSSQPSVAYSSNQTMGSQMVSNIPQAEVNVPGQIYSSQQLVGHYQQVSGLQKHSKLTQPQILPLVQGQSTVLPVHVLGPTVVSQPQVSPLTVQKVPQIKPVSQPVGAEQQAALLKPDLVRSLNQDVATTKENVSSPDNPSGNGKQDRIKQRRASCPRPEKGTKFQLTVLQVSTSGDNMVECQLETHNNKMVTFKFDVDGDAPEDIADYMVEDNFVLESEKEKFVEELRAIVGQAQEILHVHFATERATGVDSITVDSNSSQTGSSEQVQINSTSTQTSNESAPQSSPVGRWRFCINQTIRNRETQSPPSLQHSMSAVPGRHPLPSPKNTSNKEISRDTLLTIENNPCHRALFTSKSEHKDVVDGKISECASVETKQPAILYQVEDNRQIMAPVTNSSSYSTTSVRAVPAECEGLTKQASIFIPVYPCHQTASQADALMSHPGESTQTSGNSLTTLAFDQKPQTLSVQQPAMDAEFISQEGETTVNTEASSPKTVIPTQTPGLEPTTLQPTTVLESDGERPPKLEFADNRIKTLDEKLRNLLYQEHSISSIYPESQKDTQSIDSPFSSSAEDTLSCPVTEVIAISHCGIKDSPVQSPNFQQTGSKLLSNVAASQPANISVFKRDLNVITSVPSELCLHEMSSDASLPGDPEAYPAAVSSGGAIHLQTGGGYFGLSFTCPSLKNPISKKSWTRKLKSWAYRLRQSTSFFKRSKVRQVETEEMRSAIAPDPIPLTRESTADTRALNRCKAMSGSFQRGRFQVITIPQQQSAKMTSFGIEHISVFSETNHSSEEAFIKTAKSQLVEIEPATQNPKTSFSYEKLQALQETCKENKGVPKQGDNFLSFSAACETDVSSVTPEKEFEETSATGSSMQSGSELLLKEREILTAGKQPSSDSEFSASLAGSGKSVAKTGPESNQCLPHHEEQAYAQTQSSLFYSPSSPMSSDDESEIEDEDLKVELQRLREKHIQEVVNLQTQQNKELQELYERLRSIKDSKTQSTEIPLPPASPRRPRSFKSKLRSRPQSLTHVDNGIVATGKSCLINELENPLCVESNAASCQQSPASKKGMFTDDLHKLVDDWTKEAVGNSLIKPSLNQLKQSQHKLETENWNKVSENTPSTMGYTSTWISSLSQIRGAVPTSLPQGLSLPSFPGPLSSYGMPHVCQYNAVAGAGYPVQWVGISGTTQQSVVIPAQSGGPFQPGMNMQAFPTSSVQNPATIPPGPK
Sequence of Casein kinase I isoform gamma-3 (Homo sapiens) (Q9Y6M4 whole entry, looked up, canonical isoform): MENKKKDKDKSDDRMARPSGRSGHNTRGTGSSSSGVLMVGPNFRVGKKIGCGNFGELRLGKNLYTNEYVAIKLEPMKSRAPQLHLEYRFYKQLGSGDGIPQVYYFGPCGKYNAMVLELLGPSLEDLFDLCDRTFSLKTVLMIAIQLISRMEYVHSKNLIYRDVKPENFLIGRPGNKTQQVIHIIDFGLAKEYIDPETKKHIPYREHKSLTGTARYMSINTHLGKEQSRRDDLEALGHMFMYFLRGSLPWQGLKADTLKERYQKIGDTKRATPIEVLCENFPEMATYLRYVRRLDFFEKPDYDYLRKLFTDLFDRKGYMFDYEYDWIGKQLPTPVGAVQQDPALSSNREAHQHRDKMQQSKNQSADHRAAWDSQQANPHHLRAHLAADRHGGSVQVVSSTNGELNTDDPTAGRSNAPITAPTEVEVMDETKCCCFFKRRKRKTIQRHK

COc1cc(N(C)c2ccnc3ccc(C(F)(F)F)cc23)cc(OC)c1OC
% binding [1]: 90%

O=C(NOC[C@H](O)CO)c1ccc(F)c(F)c1Nc1ccc(I)cc1F
% of control [2]: 67%
% of control [3]: 100%

CNC(=O)Nc1ccc(-c2nc(N3CC4CCC(C3)O4)c3cnn(C4CCC5(CC4)OCCO5)c3n2)cc1
% of inhibition [4]: 7%

O[C@H]1CC[C@H](Nc2ncc3nc(Nc4c(F)cc(F)cc4F)n([C@H]4CCOC4)c3n2)CC1
% of control [5]: 100%
% of control [6]: 100%
